Reference: ChEMBL document CHEMBL3397005, “Synthesis and antiproliferative activity of novel polynuclear heterocyclic compounds derived from 2,3-diaminophenazine” (Eur J Med Chem, 2015)
Values after ≈ are worked out from the molar mass of the structure shown. Active and inactive are the calls of the source. The rule behind the calls is not given here.

Assays:
A549 [1] = experiment: Antiproliferative activity against human A549 cells; type: functional, cell-based
HCT-116 [2] = experiment: (§1) Antiproliferative activity against human HCT116 cells; type: functional, cell-based
[3] = as §1; type: functional, cell-based; details: HCT-116
A549 [4] = experiment: Inhibition of tyrosine kinase in human A549 cells at IC50 after 24 hrs by ELISA relative to control; type: cell-based
HCT-116 [5] = experiment: Inhibition of tyrosine kinase in human HCT116 cells at IC50 after 24 hrs by ELISA relative to control; type: cell-based

SMILES | Activity (A549 [1]) | Activity (HCT-116 [2]) | IC50 (A549 [1]) [µg/mL] | IC50 [3] [µg/mL] | inhibition (A549 [4]) [%] | inhibition (HCT-116 [5]) [%]
O=c1[nH]c2cc3nc4ccccc4nc3cc2[nH]c1=O | inactive | inactive | – | – | – | –
S=c1[nH]c2cc3nc4ccccc4nc3cc2[nH]1 | – | – | 7.7 (≈ 30.5 µM) | 4.4 (≈ 17.4 µM) | 86 | 85
CC1CC(=O)Nc2cc3nc4ccccc4nc3cc2N1 (stereo unspecified) | inactive | inactive | – | – | – | –
c1ccc2nc3cc4[nH]cnc4cc3nc2c1 | – | – | 21.7 (≈ 98.5 µM) | 11.4 (≈ 51.8 µM) | 5 | 3
CCOC(=O)c1nn(-c2ccc(C)cc2)c2nc3cc4nc5ccccc5nc4cc3n12 | – | – | 19 (≈ 45 µM) | 9.6 (≈ 22.7 µM) | 14 | 18
C(=C\c1nc2cc3nc4ccccc4nc3cc2[nH]1)/c1ccccc1 | inactive | inactive | – | – | – | –
Clc1ccc(-c2nc3cc4nc5ccccc5nc4cc3[nH]2)c(Cl)c1 | – | – | 11.5 (≈ 31.5 µM) | 6.8 (≈ 18.6 µM) | 16 | 12
CCOC(=O)c1nn(-c2ccccc2)c2nc3cc4nc5ccccc5nc4cc3n12 | – | – | 21 (≈ 51.4 µM) | 11.2 (≈ 27.4 µM) | 11 | 4
O=c1oc(=O)c2[nH]c3cc4nc5ccccc5nc4cc3[nH]c1=2 | – | – | 27.6 (≈ 90.7 µM) | 14.6 (≈ 48 µM) | 2 | 0.4
CSc1nc2cc3nc4ccccc4nc3cc2[nH]1 | – | – | 8.4 (≈ 31.5 µM) | 5.2 (≈ 19.5 µM) | 85 | 84
Nc1cc2nc3ccccc3nc2cc1N | – | – | 8.8 (≈ 41.9 µM) | 6 (≈ 28.5 µM) | 80 | 72
Clc1cccc(-c2nc3cc4nc5ccccc5nc4cc3[nH]2)c1 | – | – | 13.8 (≈ 41.7 µM) | 7.9 (≈ 23.9 µM) | 15 | 17
c1ccc(-c2nc3cc4nc5ccccc5nc4cc3[nH]2)cc1 | inactive | inactive | – | – | – | –
CCOC(=O)c1nn(-c2ccc(Cl)cc2)c2nc3cc4nc5ccccc5nc4cc3n12 | – | – | 17.6 (≈ 39.7 µM) | 8.75 (≈ 19.8 µM) | 50 | 37
O=C1CC(=O)Nc2cc3nc4ccccc4nc3cc2N1 | inactive | inactive | – | – | – | –
c1ccc2nc3c(nc2c1)Nc1cc2nc4ccccc4nc2cc1N3 | inactive | inactive | – | – | – | –
O=C(Nc1cc2nc3ccccc3nc2cc1NC(=O)c1ccccc1)c1ccccc1 | – | – | 23.6 (≈ 56.4 µM) | 17.5 (≈ 41.8 µM) | 1 | 0.5
O=c1[nH]c2cc3nc4ccccc4nc3cc2[nH]/c1=N/Nc1ccccc1 | inactive | inactive | – | – | – | –
CCOC(=O)/C(=N/Nc1ccccc1)Nc1cc2nc3ccccc3nc2cc1N | inactive | inactive | – | – | – | –
Nc1cc2nc3ccccc3nc2cc1/N=N/C1C(=O)ON=C1c1ccccc1 (stereo unspecified) | – | – | 9.8 (≈ 25.6 µM) | 6.8 (≈ 17.8 µM) | 72 | 68
CC1=NN(c2ccccc2)C(=O)C1/N=N/c1cc2nc3ccccc3nc2cc1N (stereo unspecified) | – | – | 22 (≈ 55.6 µM) | 11.9 (≈ 30.1 µM) | 4 | 2
CC1(C)CC(=O)C(/N=N/c2cc3nc4ccccc4nc3cc2N)C(=O)C1 | – | – | 22.3 (≈ 61.7 µM) | 13.9 (≈ 38.5 µM) | 2 | 0.6
CCCc1nc2cc3nc4ccccc4nc3cc2[nH]1 | – | – | 8.4 (≈ 32 µM) | 6.5 (≈ 24.8 µM) | 70 | 64
